In ChEMBL document CHEMBL1201862, “PubChem BioAssay data set” (2004):
Activity calls are given as the source filed them.

What was measured:
Phospholipase A2 = Phospholipase A2 (Homo sapiens, UniProt P04054); format: functional;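 also: confirmatory dose-response counterscreen on phospholipase A2, testing hits that came from an ultra-high-throughput screen for ATG4B inhibitors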
Caspase-3 = biological target: T1, Caspase-3 (Homo sapiens, UniProt P42574); format: functional;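 also: Dose-response selectivity test against caspase-3 for candidate inhibitors of sentrin-specific proteases (SENPs)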
T1 sequence (P42574 whole entry): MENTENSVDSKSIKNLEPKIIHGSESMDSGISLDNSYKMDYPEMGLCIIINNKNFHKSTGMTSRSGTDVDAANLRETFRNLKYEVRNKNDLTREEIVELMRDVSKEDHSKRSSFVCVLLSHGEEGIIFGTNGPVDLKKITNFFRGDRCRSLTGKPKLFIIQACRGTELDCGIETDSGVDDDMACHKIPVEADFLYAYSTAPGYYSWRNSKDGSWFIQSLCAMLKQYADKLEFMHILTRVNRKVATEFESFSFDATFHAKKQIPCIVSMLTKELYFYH

[1] = biological target: T2, Sentrin-specific protease 7 (Homo sapiens, UniProt Q9BQF6); format: functional;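 also: Luminescence-based dose-response confirmation of ultra-high-throughput screening hits, measuring inhibition of SENP7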
T2 sequence (Q9BQF6 whole entry): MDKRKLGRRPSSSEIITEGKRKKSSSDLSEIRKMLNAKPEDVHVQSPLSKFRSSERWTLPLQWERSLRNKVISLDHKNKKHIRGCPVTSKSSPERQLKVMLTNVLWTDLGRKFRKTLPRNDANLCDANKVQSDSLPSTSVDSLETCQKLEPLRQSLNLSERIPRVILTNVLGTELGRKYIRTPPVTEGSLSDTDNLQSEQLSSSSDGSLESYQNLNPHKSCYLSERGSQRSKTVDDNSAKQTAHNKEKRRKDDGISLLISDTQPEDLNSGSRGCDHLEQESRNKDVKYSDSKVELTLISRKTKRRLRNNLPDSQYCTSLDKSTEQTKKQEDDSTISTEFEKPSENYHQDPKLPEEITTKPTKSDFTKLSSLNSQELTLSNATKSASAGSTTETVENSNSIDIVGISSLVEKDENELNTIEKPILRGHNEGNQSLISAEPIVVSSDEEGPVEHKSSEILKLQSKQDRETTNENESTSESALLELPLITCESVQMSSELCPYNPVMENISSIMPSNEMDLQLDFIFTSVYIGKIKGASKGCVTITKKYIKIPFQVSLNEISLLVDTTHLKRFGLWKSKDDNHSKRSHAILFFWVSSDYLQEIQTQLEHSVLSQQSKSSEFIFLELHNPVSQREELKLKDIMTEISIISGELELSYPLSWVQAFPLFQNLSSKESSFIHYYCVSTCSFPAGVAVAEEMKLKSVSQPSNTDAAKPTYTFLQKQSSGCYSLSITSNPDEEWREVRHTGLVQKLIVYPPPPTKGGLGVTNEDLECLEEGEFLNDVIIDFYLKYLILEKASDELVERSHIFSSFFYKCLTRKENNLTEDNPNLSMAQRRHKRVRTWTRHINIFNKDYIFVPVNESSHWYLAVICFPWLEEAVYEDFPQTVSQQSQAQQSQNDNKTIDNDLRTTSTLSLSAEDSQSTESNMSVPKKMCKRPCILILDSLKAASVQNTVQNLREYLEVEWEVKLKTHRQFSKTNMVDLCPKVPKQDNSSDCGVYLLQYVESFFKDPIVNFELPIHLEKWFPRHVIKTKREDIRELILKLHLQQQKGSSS

[2] = biological target: T3, Sentrin-specific protease 6 (Homo sapiens, UniProt Q9GZR1); format: functional;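 also: Luminescence-based dose-response confirmatory assay of SENP6 inhibition, following up an ultra-high-throughput screen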
T3 sequence (Q9GZR1 whole entry): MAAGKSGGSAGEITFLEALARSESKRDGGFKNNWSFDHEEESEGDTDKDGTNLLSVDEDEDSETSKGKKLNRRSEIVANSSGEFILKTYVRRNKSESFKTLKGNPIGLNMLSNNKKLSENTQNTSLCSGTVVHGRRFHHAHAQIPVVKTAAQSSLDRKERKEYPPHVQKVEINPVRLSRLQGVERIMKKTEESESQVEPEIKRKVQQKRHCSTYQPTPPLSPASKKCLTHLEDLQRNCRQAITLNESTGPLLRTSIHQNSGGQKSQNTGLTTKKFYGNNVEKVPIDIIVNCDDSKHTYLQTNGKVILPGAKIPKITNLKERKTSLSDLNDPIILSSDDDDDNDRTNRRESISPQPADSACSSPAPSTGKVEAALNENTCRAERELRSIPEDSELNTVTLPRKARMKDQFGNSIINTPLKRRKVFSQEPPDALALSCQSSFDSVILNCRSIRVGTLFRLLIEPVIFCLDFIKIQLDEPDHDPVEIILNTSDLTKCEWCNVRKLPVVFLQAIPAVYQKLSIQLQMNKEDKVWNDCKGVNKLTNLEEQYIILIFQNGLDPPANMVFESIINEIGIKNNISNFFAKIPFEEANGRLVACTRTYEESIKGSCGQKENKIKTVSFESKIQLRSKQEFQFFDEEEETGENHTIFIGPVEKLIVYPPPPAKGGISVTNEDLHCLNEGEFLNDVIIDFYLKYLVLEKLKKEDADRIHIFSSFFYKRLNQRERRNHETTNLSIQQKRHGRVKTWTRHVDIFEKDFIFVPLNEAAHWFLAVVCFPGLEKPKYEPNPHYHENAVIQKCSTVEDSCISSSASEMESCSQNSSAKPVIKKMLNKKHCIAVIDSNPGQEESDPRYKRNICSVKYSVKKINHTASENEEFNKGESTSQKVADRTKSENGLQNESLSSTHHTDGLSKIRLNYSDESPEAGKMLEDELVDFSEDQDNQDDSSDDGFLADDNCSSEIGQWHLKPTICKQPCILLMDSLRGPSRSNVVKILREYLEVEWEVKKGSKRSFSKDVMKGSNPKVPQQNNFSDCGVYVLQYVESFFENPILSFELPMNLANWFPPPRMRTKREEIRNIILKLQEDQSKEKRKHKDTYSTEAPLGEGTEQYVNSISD

[3] = biological target: T4, Sentrin-specific protease 8 (Homo sapiens, UniProt Q96LD8); format: functional;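 also: luminescence read-out of SENP8 inhibition, dose-response confirmation following an ultra-high-throughput screen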
T4 sequence (Q96LD8 whole entry): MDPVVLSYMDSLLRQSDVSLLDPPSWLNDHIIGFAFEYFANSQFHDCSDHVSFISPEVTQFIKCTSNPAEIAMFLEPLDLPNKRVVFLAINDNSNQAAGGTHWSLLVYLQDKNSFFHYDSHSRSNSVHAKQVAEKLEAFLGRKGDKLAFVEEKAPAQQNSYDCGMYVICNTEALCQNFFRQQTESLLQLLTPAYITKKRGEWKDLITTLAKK

[4] = Luminescence Cell-Based Dose Response HTS to Identify Inhibitors of 5'UTR Stem-Loop Driven Prion Protein mRNA Translation in H4 Neuroglioblastoma Cells. [Related pubchem assays: 1827 (Project Summary), 1813 (Primary HTS)]; format: functional
[5] = inhibitors of SNCA 5'UTR-driven reporter translation, confirmation, H4 neuroglioma cells, luminescence (AID 1988); format: functional, cell-based
HEK293 = experiment: inhibitors of LMP1-driven NF-kB reporter, dose response, cell-based, HEK293, luciferase, cherry-pick (AID 588343); format: functional, Homo sapiens
[6] = biological target: T5, Latent membrane protein 1 (Human herpesvirus 4 (strain B95-8), UniProt P03230); experiment: TES1-eGFP NF-kB reporter inhibition versus Tet-On dsRED, dose response, selectivity assay for LMP1 NF-kB inhibitor project, imaging, HEK293T, dual-color eGFP/dsRED, cherry-picks (AID 588398); format: functional, cell-based
T5 sequence (P03230 whole entry): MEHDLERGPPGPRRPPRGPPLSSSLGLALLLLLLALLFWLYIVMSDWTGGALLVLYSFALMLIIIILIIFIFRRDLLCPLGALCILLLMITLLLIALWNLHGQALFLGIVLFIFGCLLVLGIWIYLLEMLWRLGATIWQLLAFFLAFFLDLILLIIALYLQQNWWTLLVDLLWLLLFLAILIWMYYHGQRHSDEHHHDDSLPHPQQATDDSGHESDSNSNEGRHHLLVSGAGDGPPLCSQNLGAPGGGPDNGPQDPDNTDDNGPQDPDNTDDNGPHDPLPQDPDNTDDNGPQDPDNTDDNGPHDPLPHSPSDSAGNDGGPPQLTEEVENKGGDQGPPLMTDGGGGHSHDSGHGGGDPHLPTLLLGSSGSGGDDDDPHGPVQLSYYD

[7] = inhibitors of firefly luciferase expression or activity, dose response, H4 neuroglioma cells, luminescence (AID 1990); format: functional, cell-based
Interleukin-8 [8] = biological target: T6, Interleukin-8 (Homo sapiens, UniProt P10145); experiment: Dose Response confirmation of uHTS small molecule hits for cystic fibrosis induced NFkb Inhibitors in a TNFa-induced IL8 counterscreen.; format: functional; conditions: read-out: IC50_Mean
T6 sequence (P10145 whole entry): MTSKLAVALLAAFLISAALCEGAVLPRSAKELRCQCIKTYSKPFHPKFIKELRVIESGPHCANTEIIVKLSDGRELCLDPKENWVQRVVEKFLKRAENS

Interleukin-8 [9] = biological target: T6, Interleukin-8; experiment: Dose Response confirmation of uHTS small molecule hits for cystic fibrosis induced NFkb Inhibitors in a PAF-induced IL8 counterscreen.; format: functional; conditions: read-out: IC50_Mean
[10] = biological target: T7, Mitochondrial peptide methionine sulfoxide reductase (Bos taurus, UniProt P54149); format: functional;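 also: absorbance read-out, biochemical high-throughput dose-response screen for MsrA inhibitors, confirmatory; recombinant bovine MsrA coupled to E. coli TrxB with NADPH and selenocystamine; potency is for inhibitors of MsrA activity on DMSO substrate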
T7 sequence (P54149 whole entry): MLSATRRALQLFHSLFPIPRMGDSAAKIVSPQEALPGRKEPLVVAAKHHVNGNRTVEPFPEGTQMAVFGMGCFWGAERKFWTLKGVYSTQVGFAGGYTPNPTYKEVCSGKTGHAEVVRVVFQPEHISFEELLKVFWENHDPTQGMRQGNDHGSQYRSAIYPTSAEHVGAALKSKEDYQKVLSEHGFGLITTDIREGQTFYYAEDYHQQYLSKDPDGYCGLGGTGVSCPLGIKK

Aminopeptidase N = biological target: T8, Aminopeptidase N (Plasmodium falciparum FcB1/Columbia, UniProt O96935); experiment: P. falciparum M1AAP inhibitors, biochemical, fluorogenic H-Leu-NHMec substrate, 1536-well (AID 1445); set-up: species or system Plasmodium falciparum 3D7, 3D7
T8 sequence (O96935 whole entry): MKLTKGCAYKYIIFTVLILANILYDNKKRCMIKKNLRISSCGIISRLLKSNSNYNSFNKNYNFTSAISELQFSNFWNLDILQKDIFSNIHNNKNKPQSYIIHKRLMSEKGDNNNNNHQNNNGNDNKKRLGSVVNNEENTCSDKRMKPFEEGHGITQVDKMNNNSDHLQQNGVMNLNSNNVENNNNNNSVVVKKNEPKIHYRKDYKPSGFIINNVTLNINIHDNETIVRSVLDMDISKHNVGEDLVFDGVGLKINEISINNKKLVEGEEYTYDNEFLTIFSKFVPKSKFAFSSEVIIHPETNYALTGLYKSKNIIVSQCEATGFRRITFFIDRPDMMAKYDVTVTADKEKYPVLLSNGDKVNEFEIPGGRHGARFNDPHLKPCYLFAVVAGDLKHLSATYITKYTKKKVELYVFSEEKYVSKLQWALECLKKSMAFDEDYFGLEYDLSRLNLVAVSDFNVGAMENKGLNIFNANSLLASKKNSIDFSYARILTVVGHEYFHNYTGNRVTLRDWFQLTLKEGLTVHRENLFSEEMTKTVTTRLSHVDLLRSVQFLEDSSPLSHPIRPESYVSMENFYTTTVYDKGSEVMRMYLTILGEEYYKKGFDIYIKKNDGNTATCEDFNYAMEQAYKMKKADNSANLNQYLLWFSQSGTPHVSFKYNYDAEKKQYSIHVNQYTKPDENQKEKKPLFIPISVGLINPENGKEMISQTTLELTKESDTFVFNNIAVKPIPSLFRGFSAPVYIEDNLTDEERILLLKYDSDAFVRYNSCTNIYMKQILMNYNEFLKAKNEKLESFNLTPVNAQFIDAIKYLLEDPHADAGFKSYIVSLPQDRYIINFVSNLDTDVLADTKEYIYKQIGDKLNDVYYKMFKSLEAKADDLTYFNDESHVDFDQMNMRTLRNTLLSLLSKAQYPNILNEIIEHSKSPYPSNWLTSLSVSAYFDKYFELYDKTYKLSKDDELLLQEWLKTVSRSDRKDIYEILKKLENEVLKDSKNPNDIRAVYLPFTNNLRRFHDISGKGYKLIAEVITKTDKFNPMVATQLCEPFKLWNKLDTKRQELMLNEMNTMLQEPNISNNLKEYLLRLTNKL

Chain of Phospholipase A2 (P04054 whole entry): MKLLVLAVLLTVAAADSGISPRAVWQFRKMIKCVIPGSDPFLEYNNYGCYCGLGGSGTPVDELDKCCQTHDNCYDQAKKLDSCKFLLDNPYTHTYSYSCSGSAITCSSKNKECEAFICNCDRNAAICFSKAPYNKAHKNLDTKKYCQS

CC(C)(C)C(=O)CSc1ncnc2sc3c(c12)CCC3
IC50 (Phospholipase A2): 2.59 µM (active)

CC(C)C(=O)Nc1ccc2nn(-c3ccccc3)nc2c1
IC50 (Caspase-3): 26.7 µM (active)
IC50 [1]: 8.73 µM (active)
IC50 [2]: > 100 µM (inactive)
IC50 [3]: > 100 µM (inactive)

c1ccc(-c2cn3c4c(sc3n2)CCCC4)cc1
EC50 [4]: 6.75 µM (active)
EC50 [5]: 6.38 µM (active)
AC50 (HEK293; hek293): 2.07 µM (active)
AC50 [6]: 47.1 µM (active)

N#CC1=C(N)N2C(=C(C#N)C1c1cccc(Br)c1)Nc1ccccc12 (stereo not given)
EC50 [7]: 11.3 µM (active)
EC50 [4]: 14.6 µM (active)
EC50 [5]: 12.9 µM (active)
AC50 (HEK293; Homo sapiens, HEK293): 3.62 µM (active)
AC50 [6]: 54 µM (active)

Cc1ccccc1-c1nc2cc(Cl)ccc2o1
IC50 (Caspase-3): 12.9 µM (active)
IC50 [1]: 4.69 µM (active)
IC50 [2]: 13.7 µM (active)
IC50 [3]: 79.7 µM (active)

O=C1C=C(NC2=CC3OC(c4ccccc4)OCC3OC2=O)CCC1 (stereo not given)
IC50 (Interleukin-8 [8]): 1.07 µM (active)
IC50 (Interleukin-8 [9]): 1.5 µM (active)

CCOP(=O)(Nc1ccc2c(c1)C(=NNC(N)=S)c1ccccc1-2)OCC
IC50 [10]: 95.9 µM (inactive)

O=Cc1cc(OCc2ccccc2)ccc1[B-](F)(F)F
AC50 (HEK293; Homo sapiens, HEK293): 2.86 µM (active)
AC50 [6]: 1.14 µM (active)

COCc1cc(C)n(CC(=O)N/N=C/c2ccc(-c3ccc(Cl)c(C(=O)O)c3)o2)c(=O)c1C#N
IC50 (Aminopeptidase N): 24.7 µM (active)
IC50 [10]: 99.4 µM (inactive)
